In this test the test system is CEM cells HIV-1 protection, formazan growth assay. In words: NCI AIDS Antiviral Assay. To be noted: for IC50: measured here: growth of uninfected CEM cells. A digest of the protocol:
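Protection of CEM cells against HIV-1 measured as cell growth via soluble formazan read-out, with five concentrations tested on both infected and uninfected cells; failure to protect may reflect toxicity.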

Activity calls are given as the source filed them.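 The calls were made as follows: active = compounds giving half or more protection of infected cells from virus-caused growth loss, again on retest; inactive = the rest.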 Where a SMILES comes first, the peptide text is derived from it. Bridges are numbered along the chain shown (N, C = ends). Roman numbers before positions name the chains, in order. [ ]: non-standard residue; d: D form. The star is where a group is joined. NMeAc5c = CNC1(C(=O)O)CCCC1; Cbz = O=C(OCc1ccccc1)*; Boc = CC(C)(C)OC(=O)*; OBn = c1ccc(CO*)cc1; tBu = CC(C)(C)*

As a reminder, the EC50 is the concentration at which the effect is half-maximal. Usually IC50 stands for the concentration that inhibits the measured activity by half. A low value points to greater potency in that assay.

`Cc1nn2c(=O)c([N+](=O)[O-])c(/C=C/c3ccco3)nc2s1`: the EC50 is over 200 µM and the IC50 is 45.7 µM.

`O=C(O)C(=C/C=C/c1ccccc1)C(=O)O`: the outcome was inactive.

As to `CC/C=C(\C(=C/CC)[N+](=O)[O-])[N+](=O)[O-]`, the EC50 is over 200 µM and the IC50 stood at 3.31 µM. With `C/C(O)=C(\C=N\C(=S)Nc1cccc(C(F)(F)F)c1)C(=O)Nc1ccccc1C`, the EC50 is over 100 µM and the IC50 is 75.9 µM. Turning to `O=C(O)c1cc(C(c2ccc(O)c(C(=O)O)c2)c2ccc(O)c(C(=O)O)c2)ccc1O`, the 50% effective concentration (EC50) was over 151 µM and the IC50 is 28.8 µM.

Regarding `Nc1nc(N)c(CCCCc2ccc([N+](=O)[O-])cc2)c(N)n1`, the result was inactive. Consider `COc1cc(CC2C(=O)NC(=O)NC2=O)ccc1OCc1ccccc1`, for which the result was inactive. As for `Oc1ccc(Cl)cc1CN1CCN(Cc2cc(Cl)ccc2O)C1`, the EC50 was over 200 µM and the half-maximal inhibitory concentration (IC50) is 1.38 µM. For `O=C(O)[C@@H]1CCCC[C@@H]1C(=O)N(C1CCCCC1)C1CCCCC1`, the EC50 was over 77.6 µM and the half-maximal inhibitory concentration (IC50) was over 77.6 µM.

Consider `O=C(NN1C(=O)C(Cl)C1c1ccccc1O)c1ccccc1O` (configuration not stated), for which the EC50 is over 56.2 µM and the IC50 is 8.32 µM.

Take `O=C(/C=C/c1cccc(Br)c1)c1cccs1`: the outcome was inactive. `CC1(C)CC2CC(CC(C)(C)C2=O)C1=O`: the EC50 is over 871 µM and the IC50 is over 871 µM.

As for `O=C(O)CN1CCN(CC(=O)N2CCN(C(=O)OCc3ccccc3)CC2)CCN(CC(=O)O)CCN(CC(=O)N2CCN(C(=O)OCc3ccccc3)CC2)CC1`, the EC50 is over 200 µM and the IC50 was over 200 µM. Consider `NC(CCCC(N)P(=O)(O)O)P(=O)(O)O` (configuration not stated), for which the outcome was inactive. For the molecule `CCn1c2c(c3ccccc31)[C@@H](c1ccc(Cl)cc1)CC1C(=O)N(c3ccccc3)C(=O)C21` (some centres not stated), the EC50 was over 11.5 µM and the IC50 is over 11.5 µM. With `COC(=O)c1ccccc1CC1Cc2cccc(C)c2C1=O` (configuration not stated), the EC50 is over 200 µM and the IC50 turned out to be 53.7 µM. As to `O=C1CCS(=O)(=O)O1`, the EC50 is over 1820 µM and the IC50 is over 1820 µM. As to `CC(=O)c1cc(C(C)=O)c(CC(=O)C(=O)Nc2cccc(C)c2C)nc1CC(=O)C(=O)Nc1cccc(C)c1C`, the EC50 is over 200 µM and the IC50 is over 200 µM. Take `Cc1ccc(S(=O)(=O)Oc2nc3nc4ccccc4nc3nc2OS(=O)(=O)c2ccc(C)cc2)cc1`: the EC50 was over 200 µM and the IC50 is 102 µM. On to `Nc1ccc(N=Nc2ccc(-c3ccc(N=Nc4c(S(=O)(=O)O)cc5cc(S(=O)(=O)O)c(N=Nc6cccc([N+](=O)[O-])c6)c(N)c5c4O)cc3)cc2)c2cc(S(=O)(=O)O)ccc12`, for which the result was active. For `Oc1cccc(C(O)CNC2CCCCC2)c1` (configuration not stated), the EC50 was over 200 µM and the IC50 is over 200 µM.

Take `CSc1nc2[nH]c(=O)n(O)c(=O)c2n1Cc1ccccc1`: the EC50 is over 200 µM and the IC50 stood at 3.8 µM. Regarding `CCOC(=O)C1CCCCc2sc(N)c(C#N)c21` (configuration not stated), the EC50 was over 200 µM and the IC50 was 191 µM. Take `Cc1cccc(C2=C/C(=C(\SS/C(C(=O)c3ccc(OCC(=O)O)c(Cl)c3Cl)=C3\C=C(c4cccc(C)c4)SS3)C(=O)c3ccc(OCC(=O)O)c(Cl)c3Cl)SS2)c1`: the outcome was inactive. For `CCOC(=O)C1Cc2ccc(OC)cc2C2=CC(=O)CCC21` (configuration not stated), the EC50 is over 166 µM and the IC50 was over 166 µM.

As to `Cn1cc(NC(=O)Nc2cc(C(=O)Nc3cc(C(=O)Nc4ccc(S(=O)(=O)O)c5cc(S(=O)(=O)O)ccc45)n(C)c3)n(C)c2)cc1C(=O)Nc1cc(C(=O)Nc2ccc(S(=O)(=O)O)c3cc(S(=O)(=O)O)ccc23)n(C)c1`, the EC50 was 12.3 µM and the IC50 amounted to 61.7 µM.

On to `CCOC(=O)c1cnc2c(cnn2CC)c1NN=C(C)C`, for which the EC50 was over 200 µM and the IC50 came out at 117 µM. For `N/N=C1/C(=O)N(c2ccc(Cl)cc2)C(=O)C(=O)C1c1nc2ccccc2s1` (configuration not stated), the EC50 is over 18.2 µM and the IC50 was over 18.2 µM. For `O=C(O)[C@H](NS(=O)(=O)c1ccc2ccccc2c1)c1ccccc1`, the result was inactive. Turning to `CN/N=C(/C=C/c1ccccc1)C(C)C`, the EC50 was over 200 µM and the IC50 is over 200 µM. In the case of `O=C(O)/C(Cl)=C(\Cl)C(=O)NC1C2CC3CC(C2)CC1C3` (configuration not stated), the outcome was inactive. For the molecule `OCc1ccc[n+](CCc2c[nH]c3ccccc23)c1`, the EC50 was over 759 µM and the IC50 is 316 µM. Turning to `NC1=NN(c2ccc(Br)cc2)C2C=CC=CN12` (configuration not stated), the EC50 is over 200 µM and the half-inhibitory concentration (IC50) turned out to be 151 µM. As to `O=C(Nc1ccccc1)Nc1ccccn1`, the EC50 was 166 µM and the IC50 was over 200 µM. For `COC(=O)n1nnc2ncccc21`, in that order: over 200 µM and over 200 µM. For `CC1(C)NN=C(SCc2ccccc2)NC1=O`, in that order: 40.7 µM and 145 µM. The like results for `O=C(O)c1ccc[n+](CC(=O)c2ccc(O)c(O)c2)c1` were, in that order, 0.0631 µM and over 200 µM. As for `COc1c(O)c(O)cc2c1-c1ccc(OC)c(=O)cc1C(NC(C)=O)CC2` (configuration not stated), the EC50 is over 200 µM and the IC50 was 1.05 µM.

Turning to `O=C1NC(=O)C(SSC2C(=O)NC(=O)NC2=O)C(=O)N1`, the EC50 was over 200 µM and the IC50 was over 200 µM. As to `Oc1ccc(O)c(-n2cccn2)c1`, the EC50 was over 14.1 µM and the IC50 stood at 7.24 µM. Take `CC1(C)C=C(S(=O)(=O)c2ccccc2)Oc2ccccc2O1`: the EC50 was over 200 µM and the IC50 came to 132 µM. Turning to `C/C(=N/NC(=S)N(C)C)c1ccccc1O`, the EC50 was over 200 µM and the IC50 worked out at 11.7 µM. For `O=C(Nc1ccc(Cl)c(C(F)(F)F)c1)C(=O)c1c(O)c2ccccc2oc1=O`, in that order: over 229 µM and 191 µM.

With `COC(=O)/C(=N\NC(=O)c1ccccc1O)C(C#N)c1ccccc1` (configuration not stated), the EC50 is over 741 µM and the IC50 came out at 5.62 µM.

For the molecule `COC(=O)N1CCC(Sc2ccccc2)C2(CCSc3ccccc3)CCC=C12` (configuration not stated), the EC50 is over 12.3 µM and the IC50 is over 12.3 µM. On to `C=C1C(O)CC[C@]2(C)C1C1OC(C)(C)O[C@]13CC(=O)C(C)=C([C@H]1OC(C)(C)OC12)C3(C)C` (some centres not stated), for which the EC50 was over 200 µM and the IC50 was over 200 µM. Take `COC(=O)C1CC(=O)N(C)c2sc(C)c(C)c2C1=O` (configuration not stated): the EC50 was over 282 µM and the IC50 amounted to 112 µM.

Turning to `COc1ccc2c(c1)C(=O)N1CCOC1C2C(=O)O` (configuration not stated), the EC50 is over 955 µM and the IC50 was over 955 µM.

Regarding `COC(=O)c1c2c(cc3c1CC1(Cc4cc5c(c(C)c4C1)CCC5)C3)CCC2` (configuration not stated), the EC50 was over 200 µM and the IC50 was over 200 µM. Regarding `ON=C1/C(=N\O)CCC/C1=N/O`, the EC50 is over 1050 µM and the IC50 was determined as 19.1 µM. In the case of `NCc1ccccc1-c1c2nc(c(-c3ccccc3CN)c3ccc([nH]3)c(-c3ccccc3CN)c3nc(c(-c4ccccc4CN)c4ccc1[nH]4)C=C3)C=C2`, the EC50 is over 9.77 µM and the IC50 was over 9.77 µM. With `COC1C=CC(O)C(CO)O1` (configuration not stated), the result was inactive. On to `CO/C(=N\N=C\c1ccc(OC)c(OC)c1)c1ccncc1`, for which the EC50 was over 437 µM and the IC50 was found to be 295 µM. Consider `CC(=O)Nc1nc(C#N)[nH]c1C#N`, for which the EC50 was over 200 µM and the IC50 is over 200 µM. With `C(=C\c1cc(CCc2nc3ccccc3[nH]2)[nH]n1)/c1ccccc1`, the EC50 was over 83.2 µM and the IC50 is over 83.2 µM. With `O=[N+]([O-])/C(C(Cl)=C(Cl)Cl)=C1/OCCS1`, the EC50 was over 200 µM and the half-inhibitory concentration (IC50) came to 107 µM. For the molecule `O=C(N/C(=C\c1ccccc1[N+](=O)[O-])c1nc2ccccc2[nH]1)c1ccccc1`, the EC50 was over 49 µM and the IC50 was over 49 µM. As to `COc1cc2c(cc1O)[C@H](C)C(c1ccccc1OC)O2` (some centres not stated), the EC50 is over 66.1 µM and the IC50 turned out to be 3.98 µM.

Take `COC(=O)c1cc2cc(CS(=O)(=O)O)ccc2cc1O`: the EC50 is over 200 µM and the IC50 is 102 µM. As for `CSC1NC(c2ccc(Cl)cc2)=C(C#N)C(=O)N1C1OCC(OC(C)=O)C(OC(C)=O)C1OC(C)=O` (configuration not stated), the EC50 is over 200 µM and the IC50 worked out at 30.9 µM. Take `CCCN(CCC)C1=Nc2ccccc2-n2cnnc2C1`: the EC50 is over 200 µM and the IC50 turned out to be 178 µM.

On to `CCCCCCCCCCCC(=O)OCC(O)CO` (configuration not stated), for which the EC50 is over 100 µM and the half-maximal inhibitory concentration (IC50) is 51.3 µM. On to `COc1ccc(CN2CC(=O)N3Cc4ccccc4CN3C(=O)C2)cc1`, for which the EC50 was over 200 µM and the IC50 was determined as 166 µM.

Take `C/C(=C/CNc1ncnc2c1ncn2CCC(=O)O)CO`: the EC50 was over 200 µM and the 50% inhibitory concentration (IC50) was over 200 µM. As for `CC(=O)OC1CC2C(C)(C)C(=O)C=C[C@]2(C)C2CCC3(C)C(c4ccoc4)OC(=O)[C@H]4O[C@]43[C@]12C` (some centres not stated), the outcome was inactive. With `C/C(O)=C(\C=N\C(=S)N=Nc1c(O)[nH]c2ccccc12)C(=O)Nc1ccccc1C`, the EC50 was over 200 µM and the IC50 is over 200 µM.

`C[n+]1cc2c3c(ccc2c2ccc4cc5c(cc4c21)OCO5)OCO3`: the EC50 is over 1.58 µM and the IC50 was 0.288 µM. Consider `CC(OC(C)(C)C)C(NC(=O)C(CCCCNC(=O)OC(C)(C)C)NC(=O)C(Cc1c[nH]c2ccccc12)NC(=O)OCc1ccccc1)C(=O)NC(Cc1ccccc1)C(=O)N(C)C1(C(=O)NC(Cc2ccccc2)C(=O)OCc2ccccc2)CCCC1` (configuration not stated) (Cbz-WK(Boc)T(tBu)F[NMeAc5c]F-OBn; configuration not given here), for which the EC50 was over 50.1 µM and the IC50 came out at 38.9 µM. Take `CC(C)C(NC(=O)C(CSSCC(NC(=O)OCc1ccccc1)C(=O)NC(C(=O)O)C(C)C)NC(=O)OCc1ccccc1)C(=O)O` (stereo not drawn) (I: Cbz-Cys-Val-OH / II: Cbz-Cys-Val-OH; disulfide I:1-II:1; configuration not given here): the EC50 was over 200 µM and the IC50 worked out at 112 µM.

These data come from PubChem BioAssay AID179 (DTP/NCI, 2004).
